{"source": "paper PMC7329864", "about": "“Role of water in cyclooxygenase catalysis and design of anti-inflammatory agents targeting two sites of the enzyme” (Scientific Reports, 2020)", "key": {"wt COX-2": {"target": "T1, wt COX-2 (Homo sapiens, UniProt P35354)", "T1 construct": "purchased Cayman Chemical Co. item no; 560131", "T1 sequence (P35354 18-604)": "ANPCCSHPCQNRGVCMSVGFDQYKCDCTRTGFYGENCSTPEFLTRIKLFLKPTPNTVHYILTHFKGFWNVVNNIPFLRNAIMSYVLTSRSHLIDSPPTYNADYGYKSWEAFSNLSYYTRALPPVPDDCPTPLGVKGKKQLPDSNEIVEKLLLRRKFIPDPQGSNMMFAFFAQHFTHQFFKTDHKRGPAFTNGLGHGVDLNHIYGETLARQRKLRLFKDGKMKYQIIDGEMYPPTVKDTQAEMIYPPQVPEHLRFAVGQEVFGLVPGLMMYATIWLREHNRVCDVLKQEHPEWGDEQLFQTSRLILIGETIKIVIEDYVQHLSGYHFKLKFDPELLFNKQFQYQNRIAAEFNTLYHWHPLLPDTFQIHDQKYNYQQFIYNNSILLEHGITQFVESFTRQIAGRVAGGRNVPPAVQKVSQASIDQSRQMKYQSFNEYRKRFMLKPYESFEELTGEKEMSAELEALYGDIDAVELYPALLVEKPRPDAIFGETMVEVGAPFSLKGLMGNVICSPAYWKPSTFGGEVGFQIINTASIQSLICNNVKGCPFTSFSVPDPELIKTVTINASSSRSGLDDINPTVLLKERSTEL", "test": "COX inhibitory enzyme immunoassay (COX-2)", "format": "biochemical", "method": "(§1) All the compounds of Fig. 9 were screened for COX-1/2 inhibitory activity in triplicate at 10^–4–10^–8 M concentration by performing enzyme immunoassays. The activity of the compounds was quantified in terms of amount of prostaglandins produced by the enzymes in the presence of different concentrations of the compound.\n(§2) For studying the COX-1, COX-2 inhibitory activities of the compounds, various reagents were prepared as per the protocol of the assays. The compounds were screened in triplicate at 10^–4–10^–8 M concentration using the procedure as described in the previous report."}, "COX-1": {"target": "T2, COX-1 (Ovis aries, UniProt P05979)", "T2 construct": "purchased Cayman Chemical Co. item no; 560131", "T2 sequence (P05979 25-600)": "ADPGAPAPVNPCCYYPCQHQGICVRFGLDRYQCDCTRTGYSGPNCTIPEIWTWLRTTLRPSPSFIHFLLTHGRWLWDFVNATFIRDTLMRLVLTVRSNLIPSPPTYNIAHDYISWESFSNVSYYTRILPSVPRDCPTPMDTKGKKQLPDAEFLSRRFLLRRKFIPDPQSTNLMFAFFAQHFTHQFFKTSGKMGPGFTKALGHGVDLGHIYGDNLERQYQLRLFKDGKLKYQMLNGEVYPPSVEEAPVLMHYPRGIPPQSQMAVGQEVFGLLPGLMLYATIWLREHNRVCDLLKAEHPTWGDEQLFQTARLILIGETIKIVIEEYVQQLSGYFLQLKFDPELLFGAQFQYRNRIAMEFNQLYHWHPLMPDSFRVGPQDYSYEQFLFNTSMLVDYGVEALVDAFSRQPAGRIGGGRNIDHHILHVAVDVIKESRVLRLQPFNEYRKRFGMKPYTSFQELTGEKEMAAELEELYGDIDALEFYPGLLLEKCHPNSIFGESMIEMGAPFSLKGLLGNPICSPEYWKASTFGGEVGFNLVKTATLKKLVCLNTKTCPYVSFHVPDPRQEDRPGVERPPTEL", "test": "COX inhibitory enzyme immunoassay (COX-1)", "format": "biochemical", "method": "as §1, §2"}, "Swiss albino mice [1]": {"test_system": "Swiss albino mice", "test": "Formalin induced pain (flinchings), analgesic activity and mechanistic pretreatments", "format": "in vivo", "method": "(§3) Since it is known to produce biphasic pain response—the neurogenic pain and the inflammatory phase, 2% formalin injection was given in the right hind paw of the animals (20 µL) and the response was quantified by counting the number of flinching after 30 min of the compound 1 treatment. The inflammatory phase has been reported in the current investigation since the cyclooxygenase inhibitors are known to ameliorate the latter phase. The involvement of cyclooxygenase and lipooxygenase pathways was studied by pretreatment with substance P and nitric oxide pathway was studied by pretreatment with L-arginine and L-NAME as previously described. Anti-inflammatory activity was examined by using carageenan induced paw edema as per the previous report.\n(§4) Swiss albino mice of either sex (25–35 g) were used for determining the analgesic and anti-inflammatory activity of the compounds. The animals were maintained at 22 ± 2 °C under 12 h light/12 h dark cycle with free supply of food and water. The study was approved by the IAEC of Guru Nanak Dev University, Amritsar, Punjab, India. A total of six groups of animals with 5 animals in each group were used. The experimental procedure as described in our previous report[52],[57] was used for studying the analgesic and anti-inflammatory activity of the compounds. All the treatments were given intraperitoneally (i.p.).\nMechanistic studies. Three groups of mice with 5 animals in each group were taken for exploring the inhibition of COX and LOX and modulation of nitric oxide pathway. For COX and LOX pathways, the animals were pretreated with substance P, 30 min before administering 1. For nitric oxide pathway, animals were pretreated with nitric oxide precursor, L-arginine and NOS inhibitor, L-NAME, 30 min before administering 1. The details of the protocols are described in previous reports[52],[57]."}, "Swiss albino mice [2]": {"test_system": "Swiss albino mice", "test": "Carageenan induced paw edema, anti-inflammatory activity", "format": "in vivo", "method": "as §3, §4"}, "Acute toxicity studies": {"test": "Acute toxicity studies", "format": "in vivo", "method": "Acute toxicity studies of 1 were carried out at 3 dose levels of 50 mg Kg^−1, 300 mg Kg^−1 and 2000 mg Kg^−1 by periodic monitoring for the first 24 h and daily monitoring for 14 days[56]. […] A few jumping movements were also observed. However, all these behaviours subsided after 60 min. […] Therefore, complying with the design and the results of in vitro studies, the in vivo experiments were gestured with the emergence of a new category of anti-inflammatory agents.\nAcute Toxicity Studies[56]. Four groups of animals with three animals per group were taken. The first group was administered the vehicle and served as the control group, the second, third and the fourth groups were treated with 1 at doses of 50 mg Kg^−1, 300 mg Kg^−1 and 2000 mg Kg^−1, respectively. All the treatments were administered after 4 h of fasting. Thereafter, the animals were observed continuously for the first four hours and periodically for 24 h. After 14 days, one animal each in control and highest dose of 1 (2000 mg Kg^−1) was sacrificed and histological studies were conducted using H and E staining.\n[56] OECD Guideline for testing of chemicals, 2001. Guideline 423: acute oral toxicity- acute toxic class method, 2001."}}, "data": [{"smiles": "O=C1NC(=O)C(=Cc2cn(CCCCCCn3c4ccccc4c(=O)c4ccccc43)c3ccccc23)C(=O)N1", "note": "[Compound 1]", "values": [{"measurement": "IC50", "setting": "wt COX-2; enzyme immunoassay, screened at 10^–4–10^–8 M, average of 3 experiments, SD ± 0.5 µM", "value": 0.06, "unit": "µM"}, {"measurement": "SI (IC50(COX-1)/IC50 (COX-2)", "setting": "wt COX-2; selectivity index COX-1/COX-2", "value": "1,000"}, {"measurement": "IC50", "setting": "COX-1", "value": 60, "unit": "µM"}, {"measurement": "reversal of formalin induced analgesia", "setting": "Swiss albino mice [1]", "value": 90, "unit": "%"}, {"measurement": "number of flinchings in neurogenic and inflammatory phase of formalin induced pain", "setting": "Swiss albino mice [1]; 10 mg kg^−1, i.p., 2% formalin 30 min after treatment, comparable to indomethacin", "value": "significant decrease"}, {"measurement": "modulation (attenuation) of analgesic effect by L-NAME pretreatment", "setting": "Swiss albino mice [1]; L-NAME (NOS inhibitor) 30 min before compound", "value": "did not"}, {"measurement": "modulation of analgesic effect by L-arginine pretreatment", "setting": "Swiss albino mice [1]; L-arginine (NO precursor) 30 min before compound", "value": "attenuated the analgesic effect of 1 partially"}, {"measurement": "modulation of analgesic effect by Substance P pretreatment", "setting": "Swiss albino mice [1]; Substance P 30 min before compound, complete reversal not evident", "value": "attenuated the analgesic effect"}, {"measurement": "reversal of carageenan induced inflammation", "setting": "Swiss albino mice [2]", "value": 90, "unit": "%"}, {"measurement": "paw volume after carageenan injection", "setting": "Swiss albino mice [2]; i.p., comparable to indomethacin", "value": "significant decrease"}, {"measurement": "histological examination of liver, kidney and myocardium", "setting": "Acute toxicity studies; 2000 mg Kg^−1, after 14 days, H and E staining, a few areas of congestion in myocardium and kidney", "value": "grossly unremarkable"}, {"measurement": "mortality in acute toxicity study", "setting": "Acute toxicity studies; 50, 300 and 2000 mg Kg^−1, oral, 14 days of observation", "value": "No mortality"}, {"measurement": "behavioural observations in acute toxicity study", "setting": "Acute toxicity studies; first 60 min after oral administration, subsided after 60 min", "value": "excessive licking, sniffing, grooming and restless movements"}]}]}
